Patent publication US12202832B2, “Heterocyclic compounds having a calcium-sensing receptor antagonistic activity” (TAKEDA PHARMACEUTICAL COMPANY LIMITED, priority 2017, dated 2025)

Each molecule was assayed against T1, human CaSR (Homo sapiens, UniProt P41180) (assay: Human CaSR antagonist activity (NFAT-Luciferase reporter in CHO cells)). Settings: CHO, CaCl2 final 1.3 mM, 100% = reference antagonist at 10 μM, read-out: Inhibition rate (%) at 3.3 μM.
T1 construct: expressed in transfected cells; host or cells: CHO cells
T1 sequence (P41180 20-1078): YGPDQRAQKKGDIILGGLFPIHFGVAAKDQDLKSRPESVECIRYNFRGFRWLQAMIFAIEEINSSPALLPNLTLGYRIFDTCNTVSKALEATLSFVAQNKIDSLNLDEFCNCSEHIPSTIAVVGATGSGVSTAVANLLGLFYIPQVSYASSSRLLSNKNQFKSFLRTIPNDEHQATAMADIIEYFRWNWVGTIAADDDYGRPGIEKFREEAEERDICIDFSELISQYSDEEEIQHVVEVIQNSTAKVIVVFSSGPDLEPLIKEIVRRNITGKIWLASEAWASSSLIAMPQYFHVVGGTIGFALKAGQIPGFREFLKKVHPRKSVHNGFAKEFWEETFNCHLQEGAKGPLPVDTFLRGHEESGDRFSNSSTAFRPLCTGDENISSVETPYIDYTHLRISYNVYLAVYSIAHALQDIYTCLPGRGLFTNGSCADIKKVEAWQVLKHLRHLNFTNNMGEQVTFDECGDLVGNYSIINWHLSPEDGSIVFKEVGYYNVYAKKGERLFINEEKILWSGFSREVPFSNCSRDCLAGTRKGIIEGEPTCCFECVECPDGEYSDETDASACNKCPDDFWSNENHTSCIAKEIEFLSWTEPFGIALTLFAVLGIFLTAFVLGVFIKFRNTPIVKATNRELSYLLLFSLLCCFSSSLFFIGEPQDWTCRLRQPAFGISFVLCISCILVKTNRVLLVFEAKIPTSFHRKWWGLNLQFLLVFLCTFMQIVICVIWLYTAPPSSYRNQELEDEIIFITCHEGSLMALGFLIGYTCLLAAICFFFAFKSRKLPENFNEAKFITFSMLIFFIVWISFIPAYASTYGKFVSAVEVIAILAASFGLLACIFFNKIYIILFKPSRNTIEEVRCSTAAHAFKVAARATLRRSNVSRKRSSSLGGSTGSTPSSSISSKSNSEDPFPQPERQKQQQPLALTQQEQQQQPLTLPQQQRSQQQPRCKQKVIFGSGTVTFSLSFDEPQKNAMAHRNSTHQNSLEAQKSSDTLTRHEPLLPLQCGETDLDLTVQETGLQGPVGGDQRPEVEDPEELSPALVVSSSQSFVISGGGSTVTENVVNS
Assay type: cell-based
Protocol: CaSR antagonist activity measurement was performed using Bright-Glo Luciferase assay system (Promega Corporation). CHO cells in which human CaSR and NFAT-Luciferase reporter gene were forcibly expressed were suspended in MEM alpha (Wako Pure Chemical Industries, Ltd.) containing 10% dialyzed serum (HyClone). The cells in suspension was seeded in 384-well white plate (Corning) at 10,000/20 μL/well, and cultured in an incubator of 37° C., 5% CO2 for one day. A diluent of Test compound was prepared with assay buffer (MEM alpha containing 10 mM HEPES (Life Technologies) and 10% dialysis serum). The diluent was added to the plate at 5 μL/well and allowed to stand at 37° C. for 10 minutes. Further, a diluent of 7.8 mM CaCl2 prepared with assay buffer (final concentration 1.3 mM) was added at 5 μl/well and allowed to stand in an incubator of 37° C., 5% CO2 for 2 hours. Bright-Glo reagents (Promega Corporation) were added at 10 μL/well, and the obtained mixture was stirred for 5 minutes, and then luminescence intensity was measured using Multi-label reader Envision (PerkinElmer, Inc.). The activity (%) of the test compound was calculated with the definitions in which the luminescence intensity when DMSO is added in place of the test compound is defined as 0% inhibition; and the luminescence intensity when (5R)—N-(1-ethyl-1-(4-ethylphenyl)propyl)-2,7,7-trimethyl-5-phenyl-4,5,6,7-tetrahydropyrazolo[1,5-a] Pyrimidine-3-carboxamide at final concentration of 10 μM is added is defined as 100% inhibition.

| inhibition at 3.3 µM | SMILES |
| --- | --- |
| 103% | CCc1ccc(C(CC)(NC(=O)c2cnn3c2N[C@@H](c2ccccc2)CC3(C)C)C(=O)NC)cc1 (stereo partly drawn) [Example 29, (5R)-N-(2-(4-Ethylphenyl)-1-(methylamino)-1-oxobutan-2-yl)-7,7-dimethyl-5-phenyl-4,5,6,7-tetrahydropyrazolo[1,5-a]pyrimidine-3-carboxamide] |
| 106% | CCc1ccc(C(CC)(NC(=O)c2cnn3c2N[C@@H](c2ccccc2)CC3(C)C)C(N)=O)cc1 (stereo partly drawn) [Example 26, (5R)-N-(1-Amino-2-(4-ethylphenyl)-1-oxobutan-2-yl)-7,7-dimethyl-5-phenyl-4,5,6,7-tetrahydropyrazolo[1,5-a]pyrimidine-3-carboxamide] |
| 101% | CCc1ccc(C(CC)(NC(=O)c2cnn3c2N[C@@H](c2ccccc2)CC3(C)C)C(=O)N[C@@H](Cc2ccccc2)C(N)=O)cc1 (stereo partly drawn) [Example 18] |
| 102% | CCc1ccc(C(CC)(NC(=O)c2cnn3c2N[C@@H](c2ccccc2)CC3(C)C)C(=O)N(C)C)cc1 (stereo partly drawn) [Example 32, (5R)-N-(1-(Dimethylamino)-2-(4-ethylphenyl)-1-oxobutan-2-yl)-7,7-dimethyl-5-phenyl-4,5,6,7-tetrahydropyrazolo[1,5-a]pyrimidine-3-carboxamide] |
| 106% | CCc1ccc(C(CC)(NC(=O)c2cnn3c2N[C@@H](c2ccccc2)CC3(C)C)C(=O)N[C@H](C)C(N)=O)cc1 (stereo partly drawn) [Example 22, (5R)-N-(1-(((2R)-1-Amino-1-oxopropan-2-yl)amino)-2-(4-ethylphenyl)-1-oxobutan-2-yl)-7,7-dimethyl-5-phenyl-4,5,6,7-tetrahydropyrazolo[1,5-a]pyrimidine-3-carboxamide] |
| 98% | CCc1ccc(C(CC)(NC(=O)c2cnn3c2N[C@@H](c2ccccc2)CC3(C)C)C(=O)N[C@@H](CC(C)C)C(N)=O)cc1 (stereo partly drawn) [Example 14, (5R)-N-(1-(((2S)-1-Amino-4-methyl-1-oxopentan-2-yl)amino)-2-(4-ethylphenyl)-1-oxobutan-2-yl)-7,7-dimethyl-5-phenyl-4,5,6,7-tetrahydropyrazolo[1,5-a]pyrimidine-3-carboxamide] |
| 100% | CCc1ccc(C(CC)(NC(=O)c2cnn3c2N[C@@H](c2ccccc2)CC3(C)C)C(=O)N[C@H](C(N)=O)[C@@H](C)CC)cc1 (stereo partly drawn) [Example 10, (5R)-N-(1-(((2S,3S)-1-Amino-3-methyl-1-oxopentan-2-yl)amino)-2-(4-ethylphenyl)-1-oxobutan-2-yl)-7,7-dimethyl-5-phenyl-4,5,6,7-tetrahydropyrazolo[1,5-a]pyrimidine-3-carboxamide] |
| 102% | CCc1ccc(C(CC)(NC(=O)c2cnn3c2N[C@@H](c2ccccc2)CC3(C)C)C(=O)N[C@@H](CO)C(N)=O)cc1 (stereo partly drawn) [Example 23, (5R)-N-(1-(((2S)-1-Amino-3-hydroxy-1-oxopropan-2-yl)amino)-2-(4-ethylphenyl)-1-oxobutan-2-yl)-7,7-dimethyl-5-phenyl-4,5,6,7-tetrahydropyrazolo[1,5-a]pyrimidine-3-carboxamide] |
| 98% | CCc1ccc(C(C)(NC(=O)c2cnn3c2N[C@@H](c2ccccc2)CC3(C)C)C(=O)N[C@@H](CC(C)C)C(N)=O)cc1 (stereo partly drawn) [Example 9, (5R)-N-(1-(((2S)-1-Amino-4-methyl-1-oxopentan-2-yl)amino)-2-(4-ethylphenyl)-1-oxopropan-2-yl)-7,7-dimethyl-5-phenyl-4,5,6,7-tetrahydropyrazolo[1,5-a]pyrimidine-3-carboxamide] |
| 104% | CCc1ccc(C(CC)(NC(=O)c2cnn3c2N[C@@H](c2ccccc2)CC3(C)C)C(=O)NCC(N)=O)cc1 (stereo partly drawn) [Example 17, (5R)-N-(1-((2-Amino-2-oxoethyl)amino)-2-(4-ethylphenyl)-1-oxobutan-2-yl)-7,7-dimethyl-5-phenyl-4,5,6,7-tetrahydropyrazolo[1,5-a]pyrimidine-3-carboxamide] |
| 101% | CCc1ccc(C(CC)(NC(=O)c2cnn3c2N[C@@H](c2ccccc2)CC3(C)C)C(=O)N[C@@H](CCCCN)C(N)=O)cc1 (stereo partly drawn) [Example 20, (5R)-N-(1-(((2S)-1,6-Diamino-1-oxohexan-2-yl)amino)-2-(4-ethylphenyl)-1-oxobutan-2-yl)-7,7-dimethyl-5-phenyl-4,5,6,7-tetrahydropyrazolo[1,5-a]pyrimidine-3-carboxamide] |
| 102% | CCc1ccc(C(CC)(NC(=O)c2cnn3c2N[C@@H](c2ccccc2)CC3(C)C)C(=O)N[C@@H](C)C(N)=O)cc1 (stereo partly drawn) [Example 2, (5R)-N-(1-(((2S)-1-Amino-1-oxopropan-2-yl)amino)-2-(4-ethylphenyl)-1-oxobutan-2-yl)-7,7-dimethyl-5-phenyl-4,5,6,7-tetrahydropyrazolo[1,5-a]pyrimidine-3-carboxamide] |
| 103% | CCc1ccc([C@@](CC)(NC(=O)c2cnn3c2N[C@@H](c2ccccc2)CC3(C)C)C(=O)N[C@H](C(N)=O)[C@@H](C)O)cc1 [Example 21, (5R)-N-((2R)-1-(((2S,3R)-1-Amino-3-hydroxy-1-oxobutan-2-yl)amino)-2-(4-ethylphenyl)-1-oxobutan-2-yl)-7,7-dimethyl-5-phenyl-4,5,6,7-tetrahydropyrazolo[1,5-a]pyrimidine-3-carboxamide] |
| 94% | CCc1ccc([C@](CC)(NC(=O)c2c(C)nn3c2N[C@@H](c2ccccc2)CC3(C)C)C(=O)N[C@@H](C)C(N)=O)cc1 [Example 3, (5R)-N-((2S)-1-(((2S)-1-Amino-1-oxopropan-2-yl)amino)-2-(4-ethylphenyl)-1-oxobutan-2-yl)-2,7,7-trimethyl-5-phenyl-4,5,6,7-tetrahydropyrazolo[1,5-a]pyrimidine-3-carboxamide] |
| 102% | CCc1ccc(C(CC)(NC(=O)c2cnn3c2N[C@@H](c2ccccc2)CC3(C)C)C(=O)N[C@@H](CC(N)=O)C(N)=O)cc1 (stereo partly drawn) [Example 24] |

Same assay, conditions: CaCl2 final 1.3 mM, 100% = reference antagonist at 10 μM

| Inhibition rate (%) at 3.3 μM | SMILES |
| --- | --- |
| 105% | CCc1ccc(C(CC)(NC(=O)c2cnn3c2N[C@@H](c2ccccc2)CC3(C)C)C(=O)N[C@@H](CC(C)C)C(N)=O)cc1 (stereo partly drawn) [Example 16, (5R)-N-(1-(((2S)-1-Amino-4-methyl-1-oxopentan-2-yl)amino)-2-(4-ethylphenyl)-1-oxobutan-2-yl)-7,7-dimethyl-5-phenyl-4,5,6,7-tetrahydropyrazolo[1,5-a]pyrimidine-3-carboxamide] |
| 104% | CCc1ccc(C(CC)(NC(=O)c2cnn3c2N[C@@H](c2ccccc2)CC3(C)C)C(=O)N(C)C)cc1 (stereo partly drawn) [Example 33, (5R)-N-(1-(Dimethylamino)-2-(4-ethylphenyl)-1-oxobutan-2-yl)-7,7-dimethyl-5-phenyl-4,5,6,7-tetrahydropyrazolo[1,5-a]pyrimidine-3-carboxamide] |
| 101% | CCc1ccc(C(CC)(NC(=O)c2cnn3c2N[C@@H](c2ccccc2)CC3(C)C)C(=O)N[C@@H](CC(C)C)C(N)=O)cc1 (stereo partly drawn) [Example 15, (5R)-N-(1-(((2S)-1-Amino-4-methyl-1-oxopentan-2-yl)amino)-2-(4-ethylphenyl)-1-oxobutan-2-yl)-7,7-dimethyl-5-phenyl-4,5,6,7-tetrahydropyrazolo[1,5-a]pyrimidine-3-carboxamide] |
